Assay results published in ChEMBL document CHEMBL1201862, “PubChem BioAssay data set” (2004).
Calls of active or inactive are those of the source.

Experiments:
[1] = biological target: T1, Tyrosine-protein phosphatase non-receptor type 7 (Homo sapiens, UniProt P35236); format: functional
T1 sequence (P35236 whole entry): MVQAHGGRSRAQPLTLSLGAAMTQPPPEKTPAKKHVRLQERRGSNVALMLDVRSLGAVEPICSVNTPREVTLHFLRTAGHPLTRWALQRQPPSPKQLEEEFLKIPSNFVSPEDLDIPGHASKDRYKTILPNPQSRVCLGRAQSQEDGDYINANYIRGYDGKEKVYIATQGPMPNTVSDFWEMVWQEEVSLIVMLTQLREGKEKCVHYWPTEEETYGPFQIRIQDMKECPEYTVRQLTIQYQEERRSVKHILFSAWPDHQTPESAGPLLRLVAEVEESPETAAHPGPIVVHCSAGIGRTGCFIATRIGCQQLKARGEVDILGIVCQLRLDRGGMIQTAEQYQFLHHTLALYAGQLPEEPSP

[2] = Trypanosoma cruzi growth suppression in host cells – NIH3T3 host cells, beta-gal luminescence, confirmation (AID 2044); format: functional, cell-based;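 also: intracellular parasites grown in NIH/3T3 mouse fibroblasts as host cells; luminescent beta-galactosidase reporter signal from transgenic T. cruzi replicating inside host cells; inhibitors lower the luminescence signal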
[3] = NIH3T3 cell viability loss – ATP luminescence, mouse fibroblasts, counter-screen, dose response (AID 2010); format: functional, cell-based;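 also: cells exposed to compound for about 90 hours before reading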
[4] = biological target: T2, Tyrosine-protein phosphatase non-receptor type 22 (Homo sapiens, UniProt Q9Y2R2); format: functional
T2 sequence (Q9Y2R2 whole entry): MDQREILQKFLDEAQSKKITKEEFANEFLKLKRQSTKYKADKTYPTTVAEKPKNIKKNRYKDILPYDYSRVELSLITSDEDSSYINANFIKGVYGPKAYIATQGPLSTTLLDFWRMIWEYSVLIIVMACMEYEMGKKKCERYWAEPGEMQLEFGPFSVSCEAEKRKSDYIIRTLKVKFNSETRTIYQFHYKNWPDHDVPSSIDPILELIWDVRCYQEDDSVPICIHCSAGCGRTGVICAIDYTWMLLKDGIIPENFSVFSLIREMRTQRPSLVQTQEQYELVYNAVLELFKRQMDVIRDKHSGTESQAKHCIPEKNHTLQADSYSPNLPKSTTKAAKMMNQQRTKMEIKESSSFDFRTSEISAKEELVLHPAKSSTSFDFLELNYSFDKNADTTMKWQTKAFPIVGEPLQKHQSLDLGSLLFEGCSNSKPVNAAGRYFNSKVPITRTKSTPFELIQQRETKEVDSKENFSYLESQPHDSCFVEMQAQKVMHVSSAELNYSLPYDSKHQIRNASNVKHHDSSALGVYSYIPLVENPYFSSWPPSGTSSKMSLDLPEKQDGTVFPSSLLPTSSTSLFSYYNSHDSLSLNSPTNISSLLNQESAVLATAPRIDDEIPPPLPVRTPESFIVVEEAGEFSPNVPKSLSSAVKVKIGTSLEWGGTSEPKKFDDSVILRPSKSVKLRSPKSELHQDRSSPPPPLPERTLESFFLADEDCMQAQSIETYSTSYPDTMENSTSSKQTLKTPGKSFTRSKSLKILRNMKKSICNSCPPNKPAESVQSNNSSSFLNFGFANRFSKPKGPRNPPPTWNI

[5] = biological target: T2, Tyrosine-protein phosphatase non-receptor type 22; format: functional; remark: listed apart in the source
Genome polyprotein = Genome polyprotein (Hepatitis C virus, UniProt Q2Q167); assay: disruption of hepatitis C core self-association – biochemical, TR-FRET, dose response (AID 2159); design: species or system Hepacivirus hominis;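 also: blocks dimerization of HCV core protein measured by TR-FRET between tagged core106 pairs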
Sequence of Genome polyprotein (Q2Q167 whole entry): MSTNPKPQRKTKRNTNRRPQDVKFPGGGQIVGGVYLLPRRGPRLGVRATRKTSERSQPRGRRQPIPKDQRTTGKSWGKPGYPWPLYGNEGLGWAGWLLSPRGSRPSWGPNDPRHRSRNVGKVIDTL

SUMO-activating enzyme [6] = biological target: T3, SUMO-activating enzyme (Homo sapiens, UniProt Q9UBT2); assay: blockers of UBC9-mediated SUMO conjugation – biochemical, AlphaScreen, SUMOylation inhibitor project, confirmation (AID 2018); format: functional
T3 sequence (Q9UBE0 whole entry): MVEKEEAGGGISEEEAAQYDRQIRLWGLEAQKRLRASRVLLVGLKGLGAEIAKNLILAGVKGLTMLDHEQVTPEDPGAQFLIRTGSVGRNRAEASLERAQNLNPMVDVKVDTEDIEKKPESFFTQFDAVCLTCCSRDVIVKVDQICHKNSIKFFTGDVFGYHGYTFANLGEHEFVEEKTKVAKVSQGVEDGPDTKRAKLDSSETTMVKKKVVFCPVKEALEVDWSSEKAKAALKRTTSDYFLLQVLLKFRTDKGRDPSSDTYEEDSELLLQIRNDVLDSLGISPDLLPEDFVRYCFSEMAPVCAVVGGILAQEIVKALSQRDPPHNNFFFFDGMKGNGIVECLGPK
T3 sequence (Q9UBT2 whole entry): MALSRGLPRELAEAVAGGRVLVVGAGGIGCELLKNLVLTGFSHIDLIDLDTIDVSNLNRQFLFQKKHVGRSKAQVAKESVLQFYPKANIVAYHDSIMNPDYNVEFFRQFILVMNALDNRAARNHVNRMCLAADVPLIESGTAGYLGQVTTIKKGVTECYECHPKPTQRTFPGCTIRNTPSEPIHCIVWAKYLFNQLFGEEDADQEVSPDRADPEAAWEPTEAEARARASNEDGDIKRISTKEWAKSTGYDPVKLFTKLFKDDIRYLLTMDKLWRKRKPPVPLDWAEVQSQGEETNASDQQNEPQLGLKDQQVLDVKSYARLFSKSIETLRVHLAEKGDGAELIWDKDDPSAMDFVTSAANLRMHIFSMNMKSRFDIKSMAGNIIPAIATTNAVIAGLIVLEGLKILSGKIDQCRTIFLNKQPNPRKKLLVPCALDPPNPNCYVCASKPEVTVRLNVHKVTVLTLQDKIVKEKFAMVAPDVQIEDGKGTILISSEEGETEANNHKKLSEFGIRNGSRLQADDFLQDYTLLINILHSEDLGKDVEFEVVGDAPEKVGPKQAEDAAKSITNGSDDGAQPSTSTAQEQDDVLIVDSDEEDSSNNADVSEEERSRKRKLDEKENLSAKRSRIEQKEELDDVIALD

SUMO-activating enzyme [7] = biological target: T3, SUMO-activating enzyme; assay: blockers of SAE1/SAE2–UBC9 SUMO transfer – biochemical, HTRF, uHTS, primary screen (AID 2006); format: protein-complex assay
[8] = biological target: T4, Carboxy-terminal domain RNA polymerase II polypeptide A small phosphatase 1 (Homo sapiens, UniProt Q9GZU7); assay: CTDSP1 inhibitors, concentration-response, biochemical, absorbance readout, ultra-high-throughput screen actives (AID 540297); format: functional
T4 sequence (Q9GZU7 whole entry): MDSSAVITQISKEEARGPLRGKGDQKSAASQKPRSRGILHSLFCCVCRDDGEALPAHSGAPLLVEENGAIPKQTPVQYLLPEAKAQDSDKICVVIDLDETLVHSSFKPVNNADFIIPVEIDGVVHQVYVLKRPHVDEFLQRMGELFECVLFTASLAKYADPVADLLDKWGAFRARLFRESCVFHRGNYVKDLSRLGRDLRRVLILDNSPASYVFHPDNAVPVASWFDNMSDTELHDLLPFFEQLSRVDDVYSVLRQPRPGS

[9] = biological target: DNA (cytosine-5)-methyltransferase 1 (Homo sapiens, UniProt P26358); assay: inhibition of DNA methylation by DNMT1 – biochemical, fluorescent molecular beacon, confirmation (AID 602386); format: functional
Sequence of DNA (cytosine-5)-methyltransferase 1 (P26358 whole entry): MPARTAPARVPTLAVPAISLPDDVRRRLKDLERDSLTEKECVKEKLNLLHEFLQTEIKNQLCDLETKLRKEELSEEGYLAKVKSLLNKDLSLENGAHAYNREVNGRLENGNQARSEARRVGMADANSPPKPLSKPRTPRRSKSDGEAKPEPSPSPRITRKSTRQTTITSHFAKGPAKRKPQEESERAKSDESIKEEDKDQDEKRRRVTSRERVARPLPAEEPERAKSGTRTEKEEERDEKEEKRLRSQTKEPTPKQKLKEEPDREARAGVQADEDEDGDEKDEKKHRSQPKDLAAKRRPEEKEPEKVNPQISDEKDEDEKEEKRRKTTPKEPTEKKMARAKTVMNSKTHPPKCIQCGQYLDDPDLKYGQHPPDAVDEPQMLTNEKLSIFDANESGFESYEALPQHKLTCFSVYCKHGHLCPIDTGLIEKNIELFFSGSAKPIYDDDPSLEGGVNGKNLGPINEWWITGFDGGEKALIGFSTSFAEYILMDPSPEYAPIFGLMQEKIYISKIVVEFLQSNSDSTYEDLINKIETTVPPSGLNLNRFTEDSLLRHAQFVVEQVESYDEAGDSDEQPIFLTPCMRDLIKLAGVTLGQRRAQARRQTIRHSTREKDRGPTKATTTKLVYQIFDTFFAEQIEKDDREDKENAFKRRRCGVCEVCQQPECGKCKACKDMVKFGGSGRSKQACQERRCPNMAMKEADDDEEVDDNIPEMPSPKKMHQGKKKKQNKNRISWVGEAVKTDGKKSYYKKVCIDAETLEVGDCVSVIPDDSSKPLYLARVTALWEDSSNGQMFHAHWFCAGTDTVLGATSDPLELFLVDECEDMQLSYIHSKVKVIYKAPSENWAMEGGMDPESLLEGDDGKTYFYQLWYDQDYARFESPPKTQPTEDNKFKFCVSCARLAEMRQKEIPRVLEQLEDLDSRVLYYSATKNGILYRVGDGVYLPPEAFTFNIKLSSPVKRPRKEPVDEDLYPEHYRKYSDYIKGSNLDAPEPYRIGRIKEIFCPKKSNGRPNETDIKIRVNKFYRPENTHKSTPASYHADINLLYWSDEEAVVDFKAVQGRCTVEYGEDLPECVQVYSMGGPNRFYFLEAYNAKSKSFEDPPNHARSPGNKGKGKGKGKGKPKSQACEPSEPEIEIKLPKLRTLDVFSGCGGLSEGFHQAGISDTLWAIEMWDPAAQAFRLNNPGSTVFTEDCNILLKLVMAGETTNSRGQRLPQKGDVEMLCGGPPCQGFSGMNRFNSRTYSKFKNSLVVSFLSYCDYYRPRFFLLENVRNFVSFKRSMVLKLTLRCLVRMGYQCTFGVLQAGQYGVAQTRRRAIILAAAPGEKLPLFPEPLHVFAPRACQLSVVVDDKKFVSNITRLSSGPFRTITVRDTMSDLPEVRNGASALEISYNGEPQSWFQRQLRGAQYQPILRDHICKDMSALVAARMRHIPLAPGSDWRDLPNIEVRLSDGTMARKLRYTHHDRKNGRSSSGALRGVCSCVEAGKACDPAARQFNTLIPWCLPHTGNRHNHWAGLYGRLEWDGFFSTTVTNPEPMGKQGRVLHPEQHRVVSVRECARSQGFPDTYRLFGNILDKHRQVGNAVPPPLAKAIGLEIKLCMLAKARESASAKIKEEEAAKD

[10] = biological target: 26S proteasome non-ATPase regulatory subunit 14 (Homo sapiens, UniProt O00487); assay: inhibition of proteasome subunit RPN11 – biochemical, fluorescence polarization, uHTS hits, confirmation (AID 602368); format: functional
Sequence of 26S proteasome non-ATPase regulatory subunit 14 (O00487 whole entry): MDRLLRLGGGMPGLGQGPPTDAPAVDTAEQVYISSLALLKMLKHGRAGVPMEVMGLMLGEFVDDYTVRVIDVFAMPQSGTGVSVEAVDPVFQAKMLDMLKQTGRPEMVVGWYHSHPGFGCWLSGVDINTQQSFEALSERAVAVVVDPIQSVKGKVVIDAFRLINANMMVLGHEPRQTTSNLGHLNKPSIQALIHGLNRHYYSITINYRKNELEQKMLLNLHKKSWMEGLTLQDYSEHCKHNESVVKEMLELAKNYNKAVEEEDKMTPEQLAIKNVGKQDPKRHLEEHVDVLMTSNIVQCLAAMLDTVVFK

[11] = biological target: 72 kDa type IV collagenase (Homo sapiens, UniProt P08253); assay: Dose Response validation of uHTS RPN11 inhibitor hits using a MMP-2 Fluorescence assay.; format: functional
Prothrombin = Prothrombin (Bos taurus, UniProt P00735); assay: thrombin protease inhibitors – biochemical, fluorescence polarization, uHTS hits, dose response (AID 602369); format: functional
[12] = biological target: T5, Small ubiquitin-related modifier 1 (Homo sapiens, UniProt P63165); assay: SUMO1 protein interaction blockers, potency – biochemical, fluorescence polarization, uHTS hits, dose response (AID 624382); format: functional; details: read-out: IC50_Mean
T5 sequence (P63165 whole entry): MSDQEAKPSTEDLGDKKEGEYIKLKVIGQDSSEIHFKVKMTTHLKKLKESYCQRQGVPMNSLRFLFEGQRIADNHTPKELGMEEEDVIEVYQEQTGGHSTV

[13] = biological target: T5, Small ubiquitin-related modifier 1; assay: SUMO1 protein-protein binding blockers, potency – biochemical, FRET, dose response (AID 624383); format: functional; details: read-out: IC50_Mean
[14] = biological target: Intestinal-type alkaline phosphatase (Mus musculus, UniProt P24822); assay: PubChem AID 488785; format: functional
Sequence of Intestinal-type alkaline phosphatase (Mus musculus, UniProt P24822) (P24822 whole entry): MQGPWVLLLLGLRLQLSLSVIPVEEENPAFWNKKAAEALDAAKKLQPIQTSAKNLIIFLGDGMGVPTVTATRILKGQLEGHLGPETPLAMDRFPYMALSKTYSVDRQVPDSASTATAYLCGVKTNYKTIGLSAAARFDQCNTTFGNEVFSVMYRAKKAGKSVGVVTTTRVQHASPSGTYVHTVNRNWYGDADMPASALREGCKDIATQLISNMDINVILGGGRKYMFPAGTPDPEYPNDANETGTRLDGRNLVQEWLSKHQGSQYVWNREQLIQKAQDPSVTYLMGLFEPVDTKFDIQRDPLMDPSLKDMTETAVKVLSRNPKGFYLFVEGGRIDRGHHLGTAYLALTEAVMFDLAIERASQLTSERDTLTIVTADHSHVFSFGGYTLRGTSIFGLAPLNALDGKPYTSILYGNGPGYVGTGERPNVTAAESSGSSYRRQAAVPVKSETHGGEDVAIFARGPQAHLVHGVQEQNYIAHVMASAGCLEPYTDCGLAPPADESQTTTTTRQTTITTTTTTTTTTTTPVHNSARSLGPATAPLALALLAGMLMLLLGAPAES

[15] = biological target: T6, Alkaline phosphatase, tissue-nonspecific isozyme (Homo sapiens, UniProt P05186); assay: TNAP enzyme inhibition by screening hits, dose response, selectivity assay for mouse IAP inhibitor project, biochemical, human TNAP, uHTS hits (AID 488906); format: functional
T6 sequence (P05186 whole entry): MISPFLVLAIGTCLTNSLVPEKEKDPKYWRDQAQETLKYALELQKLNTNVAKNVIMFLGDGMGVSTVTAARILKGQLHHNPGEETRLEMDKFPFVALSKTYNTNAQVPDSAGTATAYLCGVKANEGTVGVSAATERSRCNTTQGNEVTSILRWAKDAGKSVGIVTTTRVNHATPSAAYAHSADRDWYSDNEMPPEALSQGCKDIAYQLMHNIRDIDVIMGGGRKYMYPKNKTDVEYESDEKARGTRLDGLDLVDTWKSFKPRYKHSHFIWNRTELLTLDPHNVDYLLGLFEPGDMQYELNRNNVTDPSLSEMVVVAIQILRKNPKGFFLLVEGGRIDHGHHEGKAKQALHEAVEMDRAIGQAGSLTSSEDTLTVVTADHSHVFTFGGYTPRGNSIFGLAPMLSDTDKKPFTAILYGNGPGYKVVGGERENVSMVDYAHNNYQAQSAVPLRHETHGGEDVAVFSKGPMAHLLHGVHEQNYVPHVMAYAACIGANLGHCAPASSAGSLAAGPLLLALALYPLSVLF

[16] = biological target: Intestinal-type alkaline phosphatase (Homo sapiens, UniProt P09923); assay: inhibition of human intestinal alkaline phosphatase – biochemical, dose response (AID 488876); format: functional
Sequence of Intestinal-type alkaline phosphatase (Homo sapiens, UniProt P09923) (P09923 whole entry): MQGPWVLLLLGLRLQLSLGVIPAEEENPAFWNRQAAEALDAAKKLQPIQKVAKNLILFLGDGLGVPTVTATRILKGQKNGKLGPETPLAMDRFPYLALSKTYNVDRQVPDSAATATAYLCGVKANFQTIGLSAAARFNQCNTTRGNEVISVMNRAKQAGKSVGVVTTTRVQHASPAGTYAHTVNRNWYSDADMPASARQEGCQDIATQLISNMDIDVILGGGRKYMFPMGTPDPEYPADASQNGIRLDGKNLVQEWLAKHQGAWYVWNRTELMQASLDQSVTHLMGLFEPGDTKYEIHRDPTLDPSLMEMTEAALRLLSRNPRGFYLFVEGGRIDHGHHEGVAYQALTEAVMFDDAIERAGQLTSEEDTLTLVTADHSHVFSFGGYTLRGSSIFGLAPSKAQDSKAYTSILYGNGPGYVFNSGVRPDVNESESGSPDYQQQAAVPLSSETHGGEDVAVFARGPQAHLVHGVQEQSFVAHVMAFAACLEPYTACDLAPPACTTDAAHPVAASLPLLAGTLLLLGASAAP

Vero = assay: viability of Vero cells under compound – cytotoxicity control for flavivirus capping enzyme inhibitors (AID 588742); format: functional; details: Chlorocebus sabaeus
BJ [17] = assay: BJ-TERT fibroblast viability loss – cell-based, RAS-independent, luminescence, dose response (AID 1933); format: functional; details: Homo sapiens
BJ [18] = assay: cells; format: functional, cell-based; details: Homo sapiens
BJ [19] = assay: BJ-TERT-LT-ST fibroblast viability loss – cell-based, RAS-independent, luminescence, dose response (AID 1935); format: functional; details: Homo sapiens;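 also: BJ fibroblasts immortalized with TERT plus LT and ST oncogenes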
[20] = DRD fibroblast viability loss – cell-based, non-viral oncogenic, luminescence, dose response (AID 1934); format: functional; details: Homo sapiens
[21] = biological target: T7, G-protein coupled receptor 55 (Homo sapiens, UniProt Q9Y2T6); assay: selective activators of receptor GPR55 – imaging, U2OS cells, beta-arrestin-GFP redistribution, primary screen (AID 1961); format: functional
T7 sequence (Q9Y2T6 whole entry): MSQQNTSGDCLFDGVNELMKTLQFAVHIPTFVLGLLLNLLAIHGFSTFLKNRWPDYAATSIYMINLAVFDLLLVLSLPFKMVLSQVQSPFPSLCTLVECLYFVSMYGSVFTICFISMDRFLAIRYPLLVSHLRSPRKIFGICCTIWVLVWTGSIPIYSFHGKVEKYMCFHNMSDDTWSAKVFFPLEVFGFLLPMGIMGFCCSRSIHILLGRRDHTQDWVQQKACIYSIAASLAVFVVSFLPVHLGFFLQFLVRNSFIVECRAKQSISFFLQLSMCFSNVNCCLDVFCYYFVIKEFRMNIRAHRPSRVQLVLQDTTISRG

Cannabinoid receptor 2 [22] = biological target: T8, Cannabinoid receptor 2 (Homo sapiens, UniProt P34972); assay: SAR analysis of antagonists of the Cannabinoid Receptor 2 using an Image-Based Assay - Set 2. [Related pubchem assays (depositor defined):AID1961, AID1965]; format: functional
T8 sequence (P34972 whole entry): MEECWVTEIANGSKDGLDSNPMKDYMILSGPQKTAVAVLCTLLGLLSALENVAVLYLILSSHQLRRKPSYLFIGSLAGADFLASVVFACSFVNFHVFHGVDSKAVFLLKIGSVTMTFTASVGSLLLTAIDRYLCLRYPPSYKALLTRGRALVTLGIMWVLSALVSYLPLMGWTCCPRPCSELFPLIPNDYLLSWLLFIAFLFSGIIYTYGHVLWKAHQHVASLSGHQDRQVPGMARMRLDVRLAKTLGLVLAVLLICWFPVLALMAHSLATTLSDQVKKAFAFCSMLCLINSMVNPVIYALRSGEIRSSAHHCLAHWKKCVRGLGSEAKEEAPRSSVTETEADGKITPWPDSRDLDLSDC

[23] = Luminescence Cell-Based Dose Retest to Confirm Inhibitors of Cancer Stem Cells. [Related pubchem assays (depositor defined):AID2717, AID2721]; format: functional; details: Homo sapiens
Cannabinoid receptor 2 [24] = biological target: T8, Cannabinoid receptor 2; assay: SAR analysis of agonists of the Cannabinoid Receptor 2 using an Image-Based Assay - Set 2. [Related pubchem assays (depositor defined):AID1961, AID1965]; format: functional
[25] = biological target: T7, G-protein coupled receptor 55; assay: SAR analysis of selective Agonists of GPR55 using an Image-Based Assay. [Related pubchem assays (depositor defined):AID1961, AID1965]; format: functional
Cannabinoid receptor 1 = Cannabinoid receptor 1 (Homo sapiens, UniProt P21554); assay: SAR analysis of antagonists of the Cannabinoid Receptor 1 using an Image-Based Assay. [Related pubchem assays (depositor defined):AID1961, AID1965]; format: functional
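For AC50 in this document: cells exposed to compound for roughly 70 hours or longer before luminescence read.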

CCC(C)NCCOCCOc1ccc(Cl)c(C)c1C (centres undefined)
IC50 [1]: > 79.4 µM (inactive) | EC50 [2]: 0.148 µM (active) | EC50 [3]: 9.69 µM (active) | IC50 [4]: > 79.4 µM (inactive) | IC50 [5]: > 79.4 µM (inactive)

COC(=O)c1c(NC(=O)COC(=O)c2ccc(NC(=O)CC#N)cc2)sc2c1CCCCC2
IC50 (Genome polyprotein): > 49.8 µM (not active) | IC50 (SUMO-activating enzyme [6]): 6.14 µM (active) | IC50 (SUMO-activating enzyme [7]): 7.43 µM (active) | IC50 [8]: 1.84 µM (active) | IC50 [9]: 3.35 µM (active) | IC50 [10]: 13.8 µM (active) | IC50 [11]: > 100 µM (inactive) | IC50 (Prothrombin): 85.9 µM (active) | IC50 [12]: > 66.6 µM (inactive) | IC50 [13]: 6.24 µM (active)

CCOC(=O)C1=C(C)N=c2s/c(=C/c3cccc([N+](=O)[O-])c3O)c(=O)n2C1c1ccc(OC)cc1OC (centres undefined)
IC50 [14]: 4.77 µM (active) | IC50 [15]: 77.1 µM (active) | IC50 [16]: > 100 µM (inactive) | CC50 (Vero): 39.4 µM (active)

Cc1occc1C(=O)Nc1ccc(OCc2ccccc2)cc1
EC50 (BJ [17]): 11.4 µM (active) | EC50 (BJ [18]): 9.33 µM (active) | EC50 (BJ [19]): > 150 µM (inconclusive) | EC50 [20]: 9.29 µM (active) | EC50 [21]: 0.866 µM (active) | IC50 (Cannabinoid receptor 2 [22]): > 32 µM (inactive) | AC50 [23]: 5.34 µM (active) | EC50 (Cannabinoid receptor 2 [24]): > 32 µM (inactive) | EC50 [25]: 0.544 µM (active) | IC50 (Cannabinoid receptor 1): > 32 µM (inactive)
